Assay in all cases: NCI tumour cell line growth inhibition, 48 h
For assay [1], the system named is RPMI-8226 leukemia.
The test system of assay [2] is HT29 colon.
Assay [3] concerns M14 melanoma.
Assay [4] relates to RXF 393 renal.
In assay [5] the test system is EKVX NSCLC.
In assay [6] the test system is CAKI-1 renal.
Assay [7] relates to HCT-116 colon.
For assay [8], the system named is NCI-H23 lung.
Assay [9] deals with UO-31 renal.
The subject of assay [10] is T-47D breast.
The test system of assay [11] is SNB-19 CNS.
In assay [12] the test system is HOP-92 NSCLC.
Assay [13] deals with A549 NSCLC.
The test system of assay [14] is BT-549 breast.
For assay [15], the system named is NCI-H522 lung.
For assay [16], the system named is LOX IMVI melanoma.

For 9 compounds, TGI and GI50 results are on record in PubChem BioAssay (NCI).

Structures are written as SMILES.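 A five-concentration, 48-hour dose response in 96-well plates underlies each endpoint, interpolated linearly between surrounding concentrations. GI50: concentration for 50% inhibition of growth. TGI is the concentration that stops growth completely.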 A value given as a limit tells only on which side of the number the result lay.

Consider `Cc1cc(C)nc(NS(=O)(=O)c2ccc(Nc3nnc(/C=C/c4c(O)ccc5ccccc45)c(=O)n3N)cc2)n1`, for which the TGI is over 100 µM in assay [1]; over 100 µM in assay [2]; 58.5 µM in assay [3]; 55.3 µM in assay [4]; 78.5 µM in [5]; 59.8 µM in [6]. For the same compound, the TGI in [7] is 42 µM; in assay [8] it was 57.7 µM; in assay [9], 86.3 µM; in assay [10] it was 51.5 µM; in assay [11], over 100 µM; in [12], over 100 µM. Moreover, the values for the TGI in assay [13] and in [14] were over 100 µM and 62.5 µM, respectively.

As to `COC(=O)/C=C/c1ccc2c(c1)[C@H](C(=O)OC)[C@@H](c1ccc(O)cc1)O2`, the TGI was 74.2 µM in assay [15]; over 100 µM in assay [2]; 42.7 µM in assay [3]; over 100 µM in [5]; over 100 µM in [6]; over 100 µM in [7]. Further, the TGI in assay [8] is over 100 µM; in assay [9], 70 µM; in assay [10] it was over 100 µM; in [11], over 100 µM; in assay [12] it was over 100 µM; in assay [13], over 100 µM. In addition, the results for the TGI in assay [16] and in assay [14] were 89.4 µM and 46.4 µM, respectively.

Regarding `C=C(C)CCN(C(=O)OC(C)(C)C)c1cc(C(C)C)co1`, the TGI in [1] was 57.3 µM; in assay [2], over 100 µM; in assay [3], over 100 µM; in assay [5], over 100 µM; in assay [6] it was over 100 µM; in [7] it was over 100 µM. Besides, the TGI in assay [8] is over 100 µM; in assay [9], over 100 µM; in [10] it was over 100 µM; in assay [11], over 100 µM; in assay [12], 61 µM; in assay [13], over 100 µM. In addition, the TGI in assay [16] was 96.7 µM; in assay [14] it was over 100 µM.

For the compound `COc1ccc2oc(=O)c(-c3csc(-c4ccccc4)n3)cc2c1`, the TGI in assay [1] is over 100 µM; in assay [2] it was over 100 µM; in assay [3] it was over 100 µM; in assay [4] it was 59.3 µM; in assay [5], over 100 µM; in [6], over 100 µM. The TGI was over 100 µM in [7]; 47.1 µM in [9]; over 100 µM in [10]; 45 µM in [11]; 56 µM in [12]; over 100 µM in assay [13]. The TGI in assay [16] is over 100 µM; in assay [14], 50.2 µM.

As to `Oc1ccccc1-c1n[nH]c(-c2ccccc2O)n1`, the TGI in [1] was over 31.1 µM; in assay [2], over 100 µM; in assay [3] it was over 100 µM; in [4], over 100 µM; in [5] it was over 34 µM; in assay [6], over 100 µM. Moreover, the TGI in [7] was over 100 µM; in [9], over 100 µM; in assay [10] it was 78.5 µM; in assay [13] it was over 100 µM; in [16] it was over 100 µM; in assay [14], over 100 µM.

On to `Cc1ccc(/C=C2\CCCCCC2=O)cc1`, for which the TGI in [1], in [15], in assay [2], in assay [3], in assay [5] and in assay [6] was over 100 µM throughout. The TGI in assay [7], in [8], in assay [9], in assay [10], in assay [11] and in assay [12] was over 100 µM in each case. For the same compound, the TGI in assay [13], in assay [16] and in assay [14] was over 100 µM throughout.

In the case of `O=C1OC(C2Cc3ccc4c(c3C2=O)CCCC4)c2ccccc21` (centres undefined), the TGI in assay [1], in assay [15], in assay [2], in [3], in [5] and in assay [6] was over 100 µM throughout. For the same compound, the TGI in assay [7], in [8], in assay [9], in assay [10], in assay [11] and in assay [13] was over 100 µM throughout. The TGI in [16] and in assay [14] was over 100 µM each time.

As for `O=c1cc(-c2ccc3ccccc3c2)[nH]c2ncccc12`, the TGI in assay [1] was 60.7 µM; in assay [15] it was 46 µM; in [2], over 100 µM; in assay [3], over 100 µM; in [5], over 100 µM; in assay [6] it was over 100 µM. Further, the TGI in assay [7] is over 100 µM; in [8] it was over 100 µM; in [9], over 100 µM; in assay [10], over 100 µM; in assay [11], over 100 µM; in assay [12], 75.6 µM. Besides, the TGI in assay [13], in assay [16] and in [14] was over 100 µM each time. Besides, the GI50 is 5.63 µM in [6] and 3.83 µM in assay [7].

As for `CC(C(=O)O)C1Nc2ccccc2NC1=O` (centres undefined), the TGI in assay [1], in [2], in assay [3], in [4], in [5] and in assay [6] was over 100 µM each time. Further, the TGI in assay [7], in [8], in [9], in assay [10], in assay [11] and in [12] was over 100 µM in each case. The TGI in assay [13], in assay [16] and in [14] was over 100 µM throughout.
